US20180344808A1, “HAPTOGLOBIN DERIVATIVE FOR TREATMENT OF SEPSIS AND ACETAMINOPHEN-INDUCED LIVER DAMAGE” (THE FEINSTEIN INSTITUTE FOR MEDICAL RESEARCH, priority 2017, published 2018)
No end group written: not given here.

Legend:
[1] = test system: acetaminophen-induced liver injury; assay: Survival in experimental acetaminophen-induced liver injury; assay type: in vivo; conditions: mice; vehicle control group 35%; n=20 per group; P<0.05
From the text: (§1) Haptoglobin is a complex protein consisting of α and β subunits (Yueh S C et al. J Chromatography, 2007). […] Administration of haptoglobin β subunit protects against lethality in mice with CLP-induced sepsis (CLP survival=85% in haptoglobin β-treated versus 50% in vehicle-treated group; n=22 mice per group, P<0.05) and in experimental acetaminophen-induced liver injury (Survival in haptoglobin β treated group=80% versus 35% in vehicle control group, P<0.05, n=20 mice per group). Screening of a peptide library of the haptoglobin β identified a critical region ([…], residues #278-305 in the B subunit) that retains the ability to inhibit HMGB1-induced TNF release from cultured macrophages. Taken together, these findings reveal a novel mechanism for haptoglobin modulation of the inflammatory action of HMGB1, with significant implications for developing experimental strategies targeting HMGB 1-dependent inflammatory diseases.
Acetaminophen-induced liver injury: Administration of haptoglobin β subunit protects against lethality in mice with experimental acetaminophen-induced liver injury (survival in haptoglobin β treated group=80% versus 35% in vehicle control group, P<0.05, n=20 mice per group).

[2] = test system: HMGB1-induced TNF release in murine macrophage-like RAW 264.7 cells; assay: Inhibition of HMGB1-induced TNF release in RAW 264.7 cells; assay type: cell-based
Description: FIG. 3A-3B: HMGB1 stimulated TNF release in murine macrophage-like RAW 264.7 cells. 3A. The addition of haptoglobin produced a dose-dependent attenuation of the HMGB1-induced TNF release (up to 90% inhibition at 100 μg/ml). 3B. […] N=3-5 experiments. *: P<0.05 vs. HMGB1 alone.

[3] = test system: CLP-induced sepsis; assay: Survival in cecal ligation and puncture (CLP)-induced sepsis; assay type: in vivo, mice
From the text: as §1
N=16 mice/group. […] Recombinant haptoglobin β (10 or 100 μg/mouse) was given once a day for 3 days starting at 24 hours after CLP surgery (N=25 mice/group). (See FIG. 5A-5B).

[4] = target: T1, HMGB1 (Homo sapiens, UniProt P09429); assay: Surface plasmon resonance (BIAcore) analysis of binding to HMGB1
T1 sequence (P09429 1-215): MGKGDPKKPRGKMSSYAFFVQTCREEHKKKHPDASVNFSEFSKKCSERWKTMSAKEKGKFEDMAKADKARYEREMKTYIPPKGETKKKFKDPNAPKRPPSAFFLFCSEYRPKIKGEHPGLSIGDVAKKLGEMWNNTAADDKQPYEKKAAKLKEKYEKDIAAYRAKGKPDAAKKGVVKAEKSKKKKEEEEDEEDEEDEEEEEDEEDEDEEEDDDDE
From the text: FIG. 2A-2B: 2A. Human haptoglobin has three phenotypes and contains α and β subunits. 2B. […] Data shown is representative of 3 separate experiments.
(§2) FIG. 6A-6C: 6A. Schematics of haptoglobin (Hp) β and Hp β peptide (SEQ ID NO:1). 6B. […] 6C. […] N=5.
Haptoglobin (Hp) β binds to HMGB1: Human haptoglobin has three phenotypes and contains α and β subunits.
(§3) Haptoglobin β peptide retains the activity to bind and inhibit HMGB1 toxicity. […] (See FIG. 6C).

[5] = test system: HMGB1-induced TNF release in primary mouse macrophages; assay: Inhibition of HMGB1-induced TNF release in primary mouse macrophages; assay type: cell-based; conditions: N=5, result in words
From the text: as §2, §3

[6] = target: T2, Haptoglobin beta subunit (human) (human, UniProt P00738 162-406); assay: surface plasmon resonance
T2 construct: also called haptoglobin β; Hp β
T2 sequence: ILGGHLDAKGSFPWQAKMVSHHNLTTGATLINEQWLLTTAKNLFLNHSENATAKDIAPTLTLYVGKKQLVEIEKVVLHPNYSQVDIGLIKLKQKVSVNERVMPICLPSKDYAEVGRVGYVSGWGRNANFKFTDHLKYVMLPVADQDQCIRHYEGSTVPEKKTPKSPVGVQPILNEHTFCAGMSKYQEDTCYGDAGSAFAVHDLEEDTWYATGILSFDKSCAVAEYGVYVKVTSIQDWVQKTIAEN

haptoglobin β: Haptoglobin beta subunit (human), SEQ ID NO:3; recombinant
Survival in acetaminophen-induced liver injury [1]: 80%
inhibition of HMGB1-induced TNF release ([2]; result in words): as effective as haptoglobin
rescue from death after CLP ([3]; haptoglobin KO mice, doses as low as 100 μg per animal per day, once a day for 3 days starting 24 hours after CLP, N=25 mice/group): rescued from death
CLP survival ([3]; mice with CLP-induced sepsis, vehicle-treated group 50%, n=22 per group, P<0.05): 85%
likelihood of survival vs vehicle-treated control after CLP ([3]; wild type mice, 200 μg/mouse injected IP, N=16 mice/group, P<0.05): twice as likely to survive
Kd ([4]; surface plasmon resonance, representative of 3 separate experiments): 29 nM

GYVSGWGRNANFKFTDHLKYVMLPVAD [Hpβ peptide]
inhibition of HMGB1-induced TNF release [5]: dose-dependently inhibited
Kd ([4]; BIAcore analysis): ~17000 nM

B1: haptoglobin: full-length haptoglobin, acute phase protein with α and β subunits; mature human sequence SEQ ID NO:2 (protein, listed as Homo sapiens)
chain: VDSGNDVTDIADDGCPKPPEIAHGYVEHSVRYQCKNYYKLRTEGDGVYTLNDKKQWINKAVGDKLPECEADDGCPKPPEIAHGYVEHSVRYQCKNYYKLRTEGDGVYTLNNEKQWINKAVGDKLPECEAVCGKPKNPANPVQRILGGHLDAKGSFPWQAKMVSHHNLTTGATLINEQWLLTTAKNLFLNHSENATAKDIAPTLTLYVGKKQLVEIEKVVLHPNYSQVDIGLIKLKQKVSVNERVMPICLPSKDYAEVGRVGYVSGWGRNANFKFTDHLKYVMLPVADQDQCIRHYEGSTVPEKKTPKSPVGVQPILNEHTFCAGMSKYQEDTCYGDAGSAFAVHDLEEDTWYATGILSFDKSCAVAEYGVYVKVTSIQDWVQKTIAEN
inhibition of HMGB1-induced TNF release ([2]; at 100 μg/ml, dose-dependent): up to 90%
protection in intra-abdominal sepsis (CLP) ([3]; wild type and haptoglobin-gene deficient animals, result in words): confers significant protection

B2: HMGB1 (ligand)
chain: MGKGDPKKPRGKMSSYAFFVQTCREEHKKKHPDASVNFSEFSKKCSERWKTMSAKEKGKFEDMAKADKARYEREMKTYIPPKGETKKKFKDPNAPKRPPSAFFLFCSEYRPKIKGEHPGLSIGDVAKKLGEMWNNTAADDKQPYEKKAAKLKEKYEKDIAAYRAKGKPDAAKKGVVKAEKSKKKKEEEEDEEDEEDEEEEEDEEDEDEEEDDDDE
notes: also called extracellular HMGB1
Kd [6]: 29 nM
